One data set addresses Kallikrein-1 (Homo sapiens, UniProt P06870). Put plainly: Inhibition of recombinant bovine enterokinase activated N-terminal His-tagged recombinant human KLK1 (19 to 262 residues) expressed in baculovirus infected Sf9 insect cells using 3',6'-bis(prolylphenylalanylarginylamino)3H-spiro(2-benzofuran-1,9'-xanthen)-3-one;TFA as substrate measured at 30 secs interval for 5 mins by fluorescence intensity assay.

Another data set concerns the target T1, Kallikrein-5 (Homo sapiens, UniProt Q9Y337).
T1 sequence (Q9Y337 whole entry): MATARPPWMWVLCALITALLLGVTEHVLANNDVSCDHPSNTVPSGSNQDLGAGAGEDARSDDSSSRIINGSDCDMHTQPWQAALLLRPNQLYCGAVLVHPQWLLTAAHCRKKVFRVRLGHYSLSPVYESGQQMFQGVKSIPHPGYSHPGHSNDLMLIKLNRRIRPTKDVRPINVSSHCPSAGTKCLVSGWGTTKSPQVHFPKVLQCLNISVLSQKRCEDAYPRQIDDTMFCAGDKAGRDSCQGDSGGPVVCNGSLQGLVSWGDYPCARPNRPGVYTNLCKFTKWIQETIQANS
Put plainly: Inhibition of recombinant 6His-Q-FLAG tagged human KLK5 expressed in baculovirus infected Sf9 insect cells using (Tos-Gly-Pro-Arg)2[R110].2TFA as substrate measured at 30 secs interval for 5 mins by fluorescence intensity assay.

For a further data set, the species on record is Homo sapiens. Put plainly: Selectivity index, ratio of compound effect for inhibition of recombinant bovine enterokinase activated N-terminal His-tagged recombinant human KLK1 (19 to 262 residues) expressed in baculovirus infected Sf9 insect cells to compound effect for inhibition of recombinant 6His-Q-FLAG tagged human KLK5 expressed in baculovirus infected insect Sf9 cells.

Data set [1] is described as follows: Half life in pH 6 buffer at 0.05 mg/ml under H2O2-induced oxidative condition over 24 hrs. The data set is classed as physicochemical. Conditions: buffer with H2O2, pH 6.
Data set [2] can be described thus: Half life in pH 8 buffer at 0.05 mg/ml under H2O2-induced oxidative condition over 24 hrs. The data set is classed as physicochemical. Particulars: buffer with H2O2, pH 8.
The nature of data set [3]: Absorption property in methanol assessed as maximum absorption wavelength by UV-spectra analysis. The data set is classed as physicochemical.
Data set [4] in a line: Solubility of the compound in pH 4 Britton-Robinson buffer at 24 hrs. Format: physicochemical. Particulars: buffer, pH 4, 24 h.
The nature of data set [5]: Half life in pH 4 to 8 buffer at 0.05 mg/ml over 24 hrs. Format: physicochemical.
Data set [6] can be described thus: Solubility of the compound in pH 6 Britton-Robinson buffer at 24 hrs. The data set is classed as physicochemical. Particulars: buffer, pH 6, 24 h.
Data set [7] is described as follows: Solubility of the compound in water at 24 hrs. The data set is classed as physicochemical.
Data set [8] can be described thus: Absorption property in methanol assessed as molar extinction co-efficient by UV-spectra analysis. The data set is classed as physicochemical.

≈ marks a conversion by molar mass, not a printed value.

Kallikrein-1, sequence (P06870 whole entry, the tested form may be a part): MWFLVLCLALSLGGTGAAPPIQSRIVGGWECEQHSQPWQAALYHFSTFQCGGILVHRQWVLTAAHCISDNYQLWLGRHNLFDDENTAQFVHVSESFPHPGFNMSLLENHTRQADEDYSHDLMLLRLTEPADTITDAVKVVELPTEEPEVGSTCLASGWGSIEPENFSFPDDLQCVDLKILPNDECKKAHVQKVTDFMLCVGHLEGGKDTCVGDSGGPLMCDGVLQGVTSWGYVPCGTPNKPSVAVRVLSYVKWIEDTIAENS

Consider `N=C(N)c1ccc(NCc2nc(-c3ccccc3)c[nH]2)cc1OCc1cccc(Cl)c1`, for which the IC50 on Kallikrein-1 is above 5.01 µM; at Kallikrein-5 (read-out: pIC50 (converted)), 0.0794 µM.
Consider `N=C(N)c1ccc(NCc2nc(-c3ccccc3)c[nH]2)cc1OCCO`, for which the IC50 on Kallikrein-1 is 79.4 µM; on Kallikrein-5 (read-out: pIC50 (converted)) it was 3.98 µM.
As for `N=C(N)c1ccc(NCc2nc(-c3ccccc3)c[nH]2)cc1OCC1CC1`, the figures for the IC50 on Kallikrein-1 and at Kallikrein-5 (read-out: pIC50 (converted)) were 50.1 µM and 0.794 µM, respectively. Also, the Selectivity Index in the data set filed under Homo sapiens stood at 60.
As to `COc1ccc2[nH]c(CNc3ccc(C(=N)N)cc3)nc2c1`, the values for the IC50 on Kallikrein-1 and on Kallikrein-5 (read-out: pIC50 (converted)) were 31.6 µM and 12.6 µM, respectively.
Take `N=C(N)c1ccc(NCc2ncc[nH]2)cc1`: the results for the IC50 at Kallikrein-1 and on Kallikrein-5 (read-out: pIC50 (converted)) were 63.1 µM and 25.1 µM, respectively.
In the case of `N=C(N)c1ccc(NCc2nc(-c3ccccc3)c[nH]2)cc1OCCC1CC1`, the IC50 at Kallikrein-1 was 50.1 µM; at Kallikrein-5 (read-out: pIC50 (converted)), 0.2 µM. In addition, the Selectivity Index in the data set listed under Homo sapiens was determined as 250.
In the case of `N=C(N)c1ccc(NCc2nc(-c3ccccc3)c[nH]2)cc1OCc1ccc(Cl)cc1`, the IC50 at Kallikrein-1 was above 5.01 µM; on Kallikrein-5 (read-out: pIC50 (converted)), 0.0631 µM.
In the case of `N=C(N)c1ccc(NCc2nc(-c3ccccc3)c[nH]2)cc1OCc1ccccc1`, the IC50 on Kallikrein-1 was 25.1 µM; on Kallikrein-5 (read-out: IC50), below 0.01 µM; on Kallikrein-5 (read-out: pIC50 (converted)), 0.0794 µM. Moreover, the Selectivity Index in the data set listed under Homo sapiens was 300.
Turning to `N=C(N)c1ccc(NCc2nc3cc(Cl)ccc3[nH]2)cc1`, the IC50 was 2 µM at Kallikrein-1 and 10 µM at Kallikrein-5 (read-out: pIC50 (converted)).
Consider `Cn1ccnc1CNc1ccc(C(=N)N)cc1`, for which the IC50 on Kallikrein-1 was 398 µM; at Kallikrein-5 (read-out: pIC50 (converted)), 126 µM.
Consider `N=C(N)c1ccc(NCc2nc3ccccc3[nH]2)cc1`, for which the results for the IC50 on Kallikrein-1 and on Kallikrein-5 (read-out: pIC50 (converted)) were 39.8 µM and 20 µM, respectively.
As for `N=C(N)c1ccc(NCc2nc(-c3ccccc3)c[nH]2)cc1OCc1ncccn1`, the figures for the IC50 at Kallikrein-1 and on Kallikrein-5 (read-out: pIC50 (converted)) were 39.8 µM and 0.0794 µM, respectively.
Consider `N=C(N)c1ccc(NCc2nc(-c3ccccc3)c[nH]2)cc1OCc1ccccc1Cl`, for which the figures for the IC50 at Kallikrein-1 and on Kallikrein-5 (read-out: pIC50 (converted)) were above 2.51 µM and 0.0316 µM, respectively.
`CN(C)CCOc1cc(NCc2nc(-c3ccccc3)c[nH]2)ccc1C(=N)N`: the values for the IC50 at Kallikrein-1 and at Kallikrein-5 (read-out: pIC50 (converted)) were 79.4 µM and 15.8 µM, respectively.
Take `N=C(N)c1ccc(NCc2nc(-c3ccccc3)c[nH]2)cc1OCC(N)=O`: the IC50 is above 50.1 µM on Kallikrein-1 and 0.794 µM at Kallikrein-5 (read-out: pIC50 (converted)).
For the molecule `CCOc1cc(NCc2nc(-c3ccccc3)c[nH]2)ccc1C(=N)N`, the results for the IC50 on Kallikrein-1 and at Kallikrein-5 (read-out: pIC50 (converted)) were 6.31 µM and 0.316 µM, respectively. Further, the Selectivity Index in the data set listed under Homo sapiens came to 20.
In the case of `CNC(=O)COc1cc(NCc2nc(-c3ccccc3)c[nH]2)ccc1C(=N)N`, the IC50 on Kallikrein-1 was 31.6 µM; at Kallikrein-5 (read-out: pIC50 (converted)) it was 0.251 µM.
Consider `N=C(N)c1ccc(NCc2nc(-c3ccccc3)c[nH]2)cc1OCC(=O)NCC1CC1`, for which the IC50 at Kallikrein-1 is above 6.31 µM; at Kallikrein-5 (read-out: pIC50 (converted)), 0.0398 µM. Further, the half-life at 0.05 mg/ml in data set [1] was 26.7 h; in [2] it was 14 h; in [5] it was above 1000 h. The Activity in data set [3] is recorded as above 290 nm; in [8], above 1000 a.u.L/mol.cm. Also, the solubility entry in data set [4] and in data set [6] was “Soluble” each time. In data set [7], this molecule registered a solubility at 24 h of 3000 µg/mL (≈ 7.17 mM).
On to `N=C(N)c1ccc(NCc2nc(-c3ccccc3)c[nH]2)cc1OCC(=O)NC1CC1`, for which the values for the IC50 on Kallikrein-1 and at Kallikrein-5 (read-out: pIC50 (converted)) were 15.8 µM and 0.0794 µM, respectively.
On to `Cn1c(CNc2ccc(C(=N)N)cc2)nc2ccccc21`, for which the IC50 at Kallikrein-1 was 6.31 µM; on Kallikrein-5 (read-out: pIC50 (converted)), 15.8 µM.
Take `CC(C)COc1cc(NCc2nc(-c3ccccc3)c[nH]2)ccc1C(=N)N`: the IC50 was 79.4 µM at Kallikrein-1 and 6.31 µM on Kallikrein-5 (read-out: pIC50 (converted)).
Regarding `N=C(N)c1ccc(NCc2nc(-c3ccccc3)c[nH]2)cc1OCc1ccccn1`, the IC50 was 20 µM on Kallikrein-1 and 0.126 µM at Kallikrein-5 (read-out: pIC50 (converted)).
Taken in the same sequence, the figures for `Cc1ccc2[nH]c(CNc3ccc(C(=N)N)cc3)nc2c1` were 6.31 µM and 10 µM.
As to `N=C(N)c1ccc(NCc2nc(-c3ccccc3)c[nH]2)cc1`, the results for the IC50 at Kallikrein-1 and on Kallikrein-5 (read-out: pIC50 (converted)) were 25.1 µM and 6.31 µM, respectively.
As to `N=C(N)c1ccc(NCc2nc(-c3ccccc3)c[nH]2)cc1OCc1ncco1`, the IC50 was 12.6 µM on Kallikrein-1 and 0.1 µM on Kallikrein-5 (read-out: pIC50 (converted)).

(Values after ChEMBL document CHEMBL4387717, “Structure guided drug design to develop kallikrein 5 inhibitors to treat Netherton syndrome” (Bioorg Med Chem Lett, 2019).)
